The values below come from patent US8580799B2 (priority 2008, dated 2013).

A short description of the first series: Measurement of logP values by HPLC on reversed phase columns (EEC directive 79/831 Annex V.A8). It is filed as physicochemical. To be noted: method [a]: pH 2.3 with 0.1% phosphoric acid and acetonitrile as eluent.
Take `O=C(CCCc1ccccc1)Nc1ccnc(CON=C(c2ccccc2)c2nsnc2C(F)(F)F)n1` [Example 12]: the logp is 4.65^[a].

Take `CC(C)(C)C(=O)Nc1ccnc(CON=C(c2ccccc2)c2nsnc2C(F)(F)F)n1` [Example 16]: the logp is 4.24^[a].

For the molecule `O=C(Nc1ccnc(CON=C(c2ccccc2)c2nsnc2C(F)(F)F)n1)c1ccccc1` [Example 11], the logp is 4.14^[a].

For the molecule `Nc1ccnc(CON=C(c2ccccc2)c2nsnc2C(F)(F)F)n1` [Example 8], the logp was 1.75^[a].

Regarding `CCCCCOC(=O)Nc1ccnc(CON=C(c2ccccc2)c2nsnc2C(F)(F)F)n1` [Example 9], the logp was 4.92^[a].

As to `COCCOCC(=O)Nc1ccnc(CON=C(c2ccccc2)c2nsnc2C(F)(F)F)n1` [Example 13], the logp was 3.46^[a].

On to `CC(C)CC(=O)Nc1ccnc(CON=C(c2ccccc2)c2nsnc2C(F)(F)F)n1` [Example 14], for which the logp was 4.09^[a].

Take `O=C1c2ccccc2C(=O)N1c1cccc(CON=C(c2ccccc2)c2nsnc2C(F)(F)F)n1` [Example 18]: the logp was 4.31^[a].

As to `CCCCCOC(=O)Nc1cccc(CON=C(c2ccccc2)c2nsnc2C(F)(F)F)n1` [Example 19], the logp was 5.68^[a].

`Nc1nc(CON=C(c2ccccc2)c2nsnc2C(F)(F)F)cs1` [Example 10]: the logp is 2.26^[a].

Regarding `O=C(Cc1ccccc1)Nc1ccnc(CON=C(c2ccccc2)c2nsnc2C(F)(F)F)n1` [Example 15], the logp was 4.09^[a].

The same series, now with this note: method [b]: LC-MS at pH 2.7 with 0.1% formic acid in water and acetonitrile, linear gradient 10% to 95% acetonitrile.
Turning to `CCCCCCOC(=O)Nc1cccc(CON=C(c2ccccc2)c2nsnc2C)n1` [Example 23], the logp was 5.99^[b].

As to `CCCCC#Cc1nc(CON=C(c2ccc(Cl)cc2)c2nnsc2C)cs1` [Example 4], the logp is 5.68^[b].

In the case of `CCCNc1cccc(CON=C(c2ccccc2)c2nsnc2C)n1` [Example 34], the logp was 2.11^[b].

For the molecule `CCCCCCNc1cccc(CON=C(c2ccccc2)c2nsnc2C(F)(F)F)n1` [Example 39], the logp is 3.44^[b].

`Cn1nccc1C(=NOCc1csc(C#CC2CC2)n1)c1ccccc1` [Example 62]: the logp is 3.87^[b].

On to `Cn1nccc1C(=NOCc1csc(NC(=O)C(C)(C)C)n1)c1ccccc1` [Example 54], for which the logp is 3.46^[b].

For `Cn1nccc1C(=NOCc1csc(NC(=O)COc2ccccc2)n1)c1ccccc1` [Example 50], the logp is 3.55^[b].

For `Cn1nccc1C(=NOCc1csc(NC(=O)OCCCCCl)n1)c1ccccc1` [Example 57], the logp was 3.65^[b].

Take `CCCCCC(=O)Nc1nc(CON=C(c2ccccc2)c2ccnn2C)cs1` [Example 52]: the logp is 3.8^[b].

Regarding `CCOC(=O)Nc1nc(CON=C(c2ccccc2)c2ccnn2C)cs1` [Example 64], the logp is 3^[b].

For `CCCCCCCOC(=O)Nc1cccc(CON=C(c2ccccc2)c2nsnc2C)n1` [Example 26], the logp was 6.42^[b].

With `CCCCC(CC)COC(=O)Nc1cccc(CON=C(c2ccccc2)c2nsnc2C)n1` (stereo not drawn) [Example 27], the logp was 6.76^[b].

For `CCCCCCC(=O)Nc1nc(CON=C(c2ccccc2)c2ccnn2C)cs1` [Example 56], the logp was 4.18^[b].

`CCCCOC(=O)Nc1nc(CON=C(c2ccccc2)c2ccnn2C)cs1` [Example 58]: the logp is 3.76^[b].

For the molecule `CCCCC#Cc1nc(CON=C(c2ccc(F)cc2)c2nnsc2C)cs1` [Example 5], the logp is 5.19^[b].

For `CCCCCCOC(=O)Nc1nc(CON=C(c2ccccc2)c2ccnn2C)cs1` [Example 59], the logp was 4.59^[b].

As to `CCCCNc1cccc(CON=C(c2ccccc2)c2nsnc2C)n1` [Example 32], the logp was 2.41^[b].

As for `C=CCCOC(=O)Nc1cccc(CON=C(c2ccccc2)c2nsnc2C)n1` [Example 24], the logp was 4.65^[b].

Regarding `Cn1nccc1C(=NOCc1csc(NC(=O)CCc2ccccc2)n1)c1ccccc1` [Example 51], the logp is 3.69^[b].

Turning to `C#CCCOC(=O)Nc1nc(CON=C(c2ccccc2)c2ccnn2C)cs1` [Example 61], the logp is 3.11^[b].

Take `CCCCC#Cc1nc(CON=C(c2ccccc2)c2nsnc2C)cs1` [Example 41]: the logp is 5.72^[b].

With `Cn1nccc1C(=NOCc1csc(Br)n1)c1ccccc1` [Example 49], the logp was 3.39^[b].

With `Cc1nsnc1C(=NOCc1cccc(NCCC2CCCCC2)n1)c1ccccc1` [Example 37], the logp is 3.46^[b].

As to `Cc1nsnc1C(=NOCc1cccc(NC(=O)OC2CCCC2)n1)c1ccccc1` [Example 21], the logp is 5.11^[b].

As to `Cn1nccc1C(=NOCc1csc(NC(=O)OC(C)(C)C)n1)c1ccccc1` [Example 63], the logp was 3.69^[b].

With `CCCCCOC(=O)Nc1nc(CON=C(c2ccccc2)c2ccnn2C)cs1` [Example 60], the logp is 4.16^[b].

Regarding `CCCCC#Cc1nc(CON=C(c2ccccc2)c2nonc2C)cs1` [Example 45], the logp is 5.51^[b].

For `C=CCCCCNc1cccc(CON=C(c2ccccc2)c2nsnc2C)n1` [Example 35], the logp was 2.78^[b].

On to `CCCCC#Cc1nc(CON=C(c2ccccc2)c2nsnc2C(F)(F)F)cs1` [Example 40], for which the logp is 6.37^[b].

With `CCCCCOC(=O)Nc1cccc(CON=C(c2ccccc2)c2nsnc2C)n1` [Example 20], the logp was 5.5^[b].

For `Cc1nsnc1C(=NOCc1cccc(NC(=O)OCc2ccccc2)n1)c1ccccc1` [Example 22], the logp was 4.92^[b].

Take `Cc1nsnc1C(=NOCc1cccc(NC(=O)OCCCCC(F)(F)F)n1)c1ccccc1` [Example 28]: the logp was 4.97^[b].

As for `CCCCC#Cc1nc(CON=C(c2ccc(F)cc2)c2nonc2C)cs1` [Example 44], the logp was 5.99^[b].

As for `Cc1nsnc1C(=NOCc1cccc(N(C(=O)OC(C)(C)C)C(=O)OC(C)(C)C)n1)c1ccccc1` [Example 29], the logp is 5.47^[b].

As for `CCCCCCNc1cccc(CON=C(c2ccccc2)c2nonc2C)n1` [Example 43], the logp is 3.31^[b].

`CCNc1cccc(CON=C(c2ccccc2)c2nsnc2C)n1` [Example 33]: the logp is 1.89^[b].

For the molecule `CCCCC#Cc1nc(CON=C(c2cccc(F)c2)c2nonc2C)cs1` [Example 46], the logp is 5.59^[b].

On to `CCCCCCNc1cccc(CON=C(c2cccc(F)c2)c2nonc2C)n1` [Example 42], for which the logp was 3.57^[b].

Turning to `CCCCC#Cc1nc(CON=C(c2ccccc2F)c2nonc2C)cs1` [Example 47], the logp was 5.39^[b].

Consider `Cn1nccc1C(=NOCc1csc(N)n1)c1ccccc1` [Example 48], for which the logp was 1.5^[b].

The series is the same for the next values; noted with them: reversed phase HPLC column; HCOOH (formic acid) method; read-out: log P(HCOOH).
`CCCCC#Cc1nc(CON2C(=O)c3ccccc3C2=O)cs1` [2-{[2-(hex-1-yn-1-yl)-1,3-thiazol-4-yl]methoxy}-1H-isoindole-1,3(2H)-dione]: the chromatographic logP was 3.78.

For the molecule `CCCCCCN(C(=O)OC(C)(C)C)c1cccc(CON2C(=O)c3ccccc3C2=O)n1`, the chromatographic logP amounted to 5.48.

With `CCCCC#Cc1nc(CON=C(c2cccc(Cl)c2)c2nnsc2C)cs1` [Example 6, 1-(3-chlorophenyl)-N-([2-(hex-1-yn-1-yl)-1,3-thiazol-4-yl]methoxy)-1-(5-methyl-1,2,3-thiadiazol-4-yl)methanimine], the chromatographic logP amounted to 5.68.

`Cc1nsnc1C(=NO)c1ccccc1` [N-hydroxy-1-(4-methyl-1,2,5-thiadiazol-3-yl)-1-phenylmethanimine]: the chromatographic logP was 2.26.

Regarding `CCCCCCN(C(=O)OC(C)(C)C)c1cccc(CON)n1`, the chromatographic logP is 3.42.

Turning to `CCCCC#Cc1nc(CON)cs1` [4-[(aminooxy)methyl]-2-(hex-1-yn-1-yl)-1,3-thiazole], the chromatographic logP amounted to 1.76.

In the case of `CCCCCCN(C(=O)OC(C)(C)C)c1cccc(CO)n1` [tert-butyl hexyl[6-(hydroxymethyl)pyridin-2-yl]carbamate], the chromatographic logP is 3.94.

For the molecule `CC#CCOC(=O)Nc1cccc(CON=C(c2ccccc2)c2nsnc2C)n1` [Example 25, But-2-yn-1-yl {6-[({[(4-methyl-1,2,5-thiadiazol-3-yl)(phenyl)methylidene]amino}oxy)-methyl]pyridin-2-yl}carbamate], the chromatographic logP was 4.28.

Regarding `O=C1c2ccccc2C(=O)N1OCc1csc(Br)n1` [2-[(2-bromo-1,3-thiazol-4-yl)methoxy]-1H-isoindole-1,3(2H)-dione], the chromatographic logP was found to be 2.39.

Turning to `Cc1nsnc1/C(=N\OCc1cccc(N2C(=O)c3ccccc3C2=O)n1)c1ccccc1` [2-{6-[({[(Z)-(4-methyl-1,2,5-thiadiazol-3-yl)(phenyl)methylene]amino}-oxy)methyl]pyridin-2-yl}-1H-isoindole-1,3(2H)-dione], the chromatographic logP worked out at 3.99.

With `Cc1nsnc1/C(=N\OCc1cccc(N)n1)c1ccccc1` [6-[({[(Z)-(4-methyl-1,2,5-thiadiazol-3-yl)(phenyl)methylene]amino}oxy)-methyl]pyridin-2-amine], the chromatographic logP stood at 1.54.

Regarding `CCCCCCNc1cccc(CON=C(c2cccc(F)c2)c2nnsc2C)n1` [Example 1, 6-[({[(3-fluorophenyl)(5-methyl-1,2,3-thiadiazol-4-yl)methylene]amino}oxy)methyl]-N-hexylpyridin-2-amine], the chromatographic logP came to 3.06.

In the case of `CCCCCCNc1cccc(CON=C(c2ccccc2)c2nsnc2C)n1` [Example 31, N-hexyl-6-[({[(4-methyl-1,2,5-thiadiazol-3-yl)(phenyl)methylidene]amino}oxy)methyl]-pyridin-2-amine], the chromatographic logP amounted to 3.11.

In the case of `Nc1nc(CON2C(=O)c3ccccc3C2=O)cs1` [2-[(2-amino-1,3-thiazol-4-yl)methoxy]-1H-isoindole-1,3(2H)-dione], the chromatographic logP is 0.74.

The same series, now with this note: reversed phase HPLC column; method [b]: LC-MS at pH 2.7 with 0.1% formic acid in water and acetonitrile, linear gradient 10% to 95% acetonitrile; read-out: logp.
As to `CCCCC#Cc1nc(CON=C(c2cccc(Cl)c2)c2nnsc2C)cs1` [Example 6, 1-(3-chlorophenyl)-N-([2-(hex-1-yn-1-yl)-1,3-thiazol-4-yl]methoxy)-1-(5-methyl-1,2,3-thiadiazol-4-yl)methanimine], the chromatographic logP amounted to 5.68.

On to `CC#CCOC(=O)Nc1cccc(CON=C(c2ccccc2)c2nsnc2C)n1` [Example 25, But-2-yn-1-yl {6-[({[(4-methyl-1,2,5-thiadiazol-3-yl)(phenyl)methylidene]amino}oxy)-methyl]pyridin-2-yl}carbamate], for which the chromatographic logP was 4.28.

With `CCCCCCNc1cccc(CON=C(c2cccc(F)c2)c2nnsc2C)n1` [Example 1, 6-[({[(3-fluorophenyl)(5-methyl-1,2,3-thiadiazol-4-yl)methylene]amino}oxy)methyl]-N-hexylpyridin-2-amine], the chromatographic logP came to 3.06.

Regarding `CCCCCCNc1cccc(CON=C(c2ccccc2)c2nsnc2C)n1` [Example 31, N-hexyl-6-[({[(4-methyl-1,2,5-thiadiazol-3-yl)(phenyl)methylidene]amino}oxy)methyl]-pyridin-2-amine], the chromatographic logP amounted to 3.11.
